# Laboratory results taken from ChEMBL document CHEMBL5321237 (Eur J Med Chem, 2023).
# Activity calls are given as the source filed them. The calls are words filed in the database; no cut-off is given here.
# Assays:
# [1] = Inhibition of […] induced osteoclast differentiation in human Osteoclast precursor cells assessed as suppression of osteoclast formation at 100 to 1000 nM incubated for over 7 days with media replacement for every 3 days by TRITC-phalloidin/Hoechst staining based microscopic analysis relative to control; assay type: functional, Osteoclast precursor cell; details: dose 100-1000 nM, time > 7 day
# [2] = system: Osteoclast precursor cell; details: Homo sapiens, dose 100-1000 nM, time > 7.0 day
# [3] = molecular target: T1, Macrophage colony-stimulating factor 1 receptor (Homo sapiens, UniProt P07333); assay: Selectivity index, ratio of Kd for non-autoinhibited form of CSF1R (unknown origin) to Kd for autoinhibited form of CSF1R (unknown origin)
# T1 sequence (P07333 whole entry): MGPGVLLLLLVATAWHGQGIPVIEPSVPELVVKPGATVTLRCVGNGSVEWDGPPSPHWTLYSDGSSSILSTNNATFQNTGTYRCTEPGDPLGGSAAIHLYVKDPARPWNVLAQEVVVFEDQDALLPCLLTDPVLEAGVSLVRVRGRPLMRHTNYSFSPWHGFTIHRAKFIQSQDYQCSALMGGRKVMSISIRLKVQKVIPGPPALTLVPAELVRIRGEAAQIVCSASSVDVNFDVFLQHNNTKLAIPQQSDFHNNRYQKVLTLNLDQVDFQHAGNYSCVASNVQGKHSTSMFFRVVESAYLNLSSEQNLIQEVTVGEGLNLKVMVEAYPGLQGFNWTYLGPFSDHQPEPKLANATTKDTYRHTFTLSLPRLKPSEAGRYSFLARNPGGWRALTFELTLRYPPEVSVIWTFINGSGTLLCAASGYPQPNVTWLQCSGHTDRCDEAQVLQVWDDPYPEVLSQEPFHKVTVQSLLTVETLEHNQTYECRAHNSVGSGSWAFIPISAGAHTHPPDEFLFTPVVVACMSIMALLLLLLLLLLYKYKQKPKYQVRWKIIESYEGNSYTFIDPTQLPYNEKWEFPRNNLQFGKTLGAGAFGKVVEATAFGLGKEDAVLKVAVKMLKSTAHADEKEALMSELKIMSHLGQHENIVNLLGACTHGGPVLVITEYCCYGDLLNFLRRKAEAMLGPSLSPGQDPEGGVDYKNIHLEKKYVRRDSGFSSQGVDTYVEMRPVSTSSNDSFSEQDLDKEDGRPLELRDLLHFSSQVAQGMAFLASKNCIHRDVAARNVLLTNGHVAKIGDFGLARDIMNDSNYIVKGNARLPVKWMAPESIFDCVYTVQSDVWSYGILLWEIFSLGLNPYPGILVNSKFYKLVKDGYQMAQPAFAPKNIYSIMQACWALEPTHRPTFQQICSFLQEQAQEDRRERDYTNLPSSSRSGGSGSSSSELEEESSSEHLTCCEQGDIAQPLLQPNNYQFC
# [4] = Metabolic stability in cryopreserved pooled ICR/CD-1 mouse hepatocytes assessed as intrinsic clearance measured per 10^6 cells at 3 uM measured for 60 mins by LC-MS/MS analysis; assay type: ADME, cell-based, Hepatocyte; details: read-out: CLH
# [5] = molecular target: T2, Macrophage colony-stimulating factor 1 receptor (Mus musculus, UniProt P09581); assay: Inhibition of CSF1-induced CSF1R signalling in mouse BMDM cells assessed as reduction in ERK1/2 phosphorylation preincubated for 30 mins followed by CSF1 addition and measured after 10 mins; assay type: cell-based
# T2 sequence (P09581 whole entry): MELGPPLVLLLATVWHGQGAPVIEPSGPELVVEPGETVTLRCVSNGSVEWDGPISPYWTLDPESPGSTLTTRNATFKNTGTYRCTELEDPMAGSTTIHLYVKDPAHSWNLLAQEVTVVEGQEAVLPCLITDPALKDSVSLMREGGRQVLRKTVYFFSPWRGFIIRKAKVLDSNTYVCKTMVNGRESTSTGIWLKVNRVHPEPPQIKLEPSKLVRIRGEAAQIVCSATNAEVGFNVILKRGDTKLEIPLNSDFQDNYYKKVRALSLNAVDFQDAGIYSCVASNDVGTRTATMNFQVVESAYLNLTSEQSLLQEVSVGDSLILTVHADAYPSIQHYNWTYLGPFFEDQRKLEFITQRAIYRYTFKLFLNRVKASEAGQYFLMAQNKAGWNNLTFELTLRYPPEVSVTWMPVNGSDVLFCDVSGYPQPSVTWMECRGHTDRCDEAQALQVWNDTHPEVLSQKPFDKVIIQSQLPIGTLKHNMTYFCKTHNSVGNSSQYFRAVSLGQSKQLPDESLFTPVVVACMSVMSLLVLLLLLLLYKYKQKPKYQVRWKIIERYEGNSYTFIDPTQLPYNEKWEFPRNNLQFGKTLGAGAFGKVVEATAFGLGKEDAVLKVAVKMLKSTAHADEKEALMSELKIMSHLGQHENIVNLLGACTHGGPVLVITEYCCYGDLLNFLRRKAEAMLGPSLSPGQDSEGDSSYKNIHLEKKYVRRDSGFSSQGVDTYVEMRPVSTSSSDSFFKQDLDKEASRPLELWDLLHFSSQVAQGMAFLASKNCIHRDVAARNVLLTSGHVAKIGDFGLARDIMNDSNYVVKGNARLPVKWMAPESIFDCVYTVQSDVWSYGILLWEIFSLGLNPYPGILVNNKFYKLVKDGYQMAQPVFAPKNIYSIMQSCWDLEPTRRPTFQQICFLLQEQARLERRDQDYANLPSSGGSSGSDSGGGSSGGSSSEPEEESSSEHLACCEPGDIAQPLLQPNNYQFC
# [6] = Metabolic stability in mouse liver microsomes assessed as intrinsic clearance at 3 uM measured upto 50 mins by LC-MS analysis; assay type: ADME, Microsome
# [7] = Kinetic aqueous solubility of compound at pH 7.4 at 500 uM incubated for 90 mins by spectrophotometry analysis; assay type: physicochemical; details: buffer, read-out: Kinetic_solubility
# [8] = Clearance in C57BLKS mouse at 1 mg/kg, iv administered as cassette dose measured for 480 mins by LC-MS analysis; assay type: ADME, organism-based; details: in vivo; for clearance: C57BLKS
# [9] = Stability in mouse plasma assessed as compound remaining at 5 uM incubated for 1 hr by LC-MS analysis; assay type: ADME, cell-free; details: read-out: Stability
# [10] = molecular target: T3, Macrophage colony-stimulating factor 1 receptor (Mus musculus) (UniProt P09581); assay: Inhibition of CSF1-induced CSF1R signalling in mouse BMDM cells assessed as reduction in ERK1/2 phosphorylation by measuring fold change preincubated for 30 mins followed by CSF1 addition and measured after 10 mins relative to pexidartinib; assay type: cell-based; details: time 40.0 min
# T3 sequence (whole entry): T2 sequence (P09581 whole entry)
# [11] = Metabolic stability in human liver microsomes assessed as intrinsic clearance at 3 uM measured upto 50 mins by LC-MS analysis; assay type: ADME, Microsome
# [12] = Observed volume of distribution at steady state in C57BLKS mouse at 1 mg/kg, iv administered as cassette dose measured for 480 mins by LC-MS analysis; assay type: ADME, organism-based; details: in vivo, read-out: Vdss
# [13] = molecular target: T1, Macrophage colony-stimulating factor 1 receptor; assay: Binding affinity to autoinhibited form of CSF1R (unknown origin) assessed as dissociation constant incubated for 1 hr by qPCR based Hill equation analysis
# BaF3 = assay: Antiproliferative activity against BaF3 cells expressing human CSF1R assessed as suppression of cell proliferation incubated for 72 hrs by Cell Titer Glo assay; assay type: functional, cell-based; details: Mus musculus, BaF3, 72 h
# [14] = molecular target: T1, Macrophage colony-stimulating factor 1 receptor; assay: Binding affinity to non-autoinhibited form of CSF1R (unknown origin) assessed as dissociation constant incubated for 1 hr by qPCR based Hill equation analysis
# [15] = Half life in C57BLKS mouse at 1 mg/kg, iv administered as cassette dose measured for 480 mins by LC-MS analysis; assay type: ADME, organism-based; details: in vivo
# [16] = Plasma protein binding in mouse assessed as bound fraction at 5 uM incubated for 6 hrs by equilibrium dialysis based LC-MS analysis; assay type: ADME, cell-free; details: read-out: PPB (converted)
# [17] = Microsomal stability mouse liver microsomes assessed as compound remaining at 5 uM incubated for 1 hr by LC-MS analysis; assay type: ADME, Microsome; details: read-out: Stability
# [18] = system: Osteoclast precursor cell; details: Homo sapiens, dose 10.0 nM, time > 7.0 day
# [19] = molecular target: T1, Macrophage colony-stimulating factor 1 receptor; assay: Inhibition of CSF1R (unknown origin) using FRET-peptide as substrate incubated in presence of ATP by FRET based Z-LYTE assay
# [20] = molecular target: Epidermal growth factor receptor (Homo sapiens, UniProt P00533); assay: Inhibition of EGFR (unknown origin) in presence of ATP
# Sequence of Epidermal growth factor receptor (P00533 whole entry): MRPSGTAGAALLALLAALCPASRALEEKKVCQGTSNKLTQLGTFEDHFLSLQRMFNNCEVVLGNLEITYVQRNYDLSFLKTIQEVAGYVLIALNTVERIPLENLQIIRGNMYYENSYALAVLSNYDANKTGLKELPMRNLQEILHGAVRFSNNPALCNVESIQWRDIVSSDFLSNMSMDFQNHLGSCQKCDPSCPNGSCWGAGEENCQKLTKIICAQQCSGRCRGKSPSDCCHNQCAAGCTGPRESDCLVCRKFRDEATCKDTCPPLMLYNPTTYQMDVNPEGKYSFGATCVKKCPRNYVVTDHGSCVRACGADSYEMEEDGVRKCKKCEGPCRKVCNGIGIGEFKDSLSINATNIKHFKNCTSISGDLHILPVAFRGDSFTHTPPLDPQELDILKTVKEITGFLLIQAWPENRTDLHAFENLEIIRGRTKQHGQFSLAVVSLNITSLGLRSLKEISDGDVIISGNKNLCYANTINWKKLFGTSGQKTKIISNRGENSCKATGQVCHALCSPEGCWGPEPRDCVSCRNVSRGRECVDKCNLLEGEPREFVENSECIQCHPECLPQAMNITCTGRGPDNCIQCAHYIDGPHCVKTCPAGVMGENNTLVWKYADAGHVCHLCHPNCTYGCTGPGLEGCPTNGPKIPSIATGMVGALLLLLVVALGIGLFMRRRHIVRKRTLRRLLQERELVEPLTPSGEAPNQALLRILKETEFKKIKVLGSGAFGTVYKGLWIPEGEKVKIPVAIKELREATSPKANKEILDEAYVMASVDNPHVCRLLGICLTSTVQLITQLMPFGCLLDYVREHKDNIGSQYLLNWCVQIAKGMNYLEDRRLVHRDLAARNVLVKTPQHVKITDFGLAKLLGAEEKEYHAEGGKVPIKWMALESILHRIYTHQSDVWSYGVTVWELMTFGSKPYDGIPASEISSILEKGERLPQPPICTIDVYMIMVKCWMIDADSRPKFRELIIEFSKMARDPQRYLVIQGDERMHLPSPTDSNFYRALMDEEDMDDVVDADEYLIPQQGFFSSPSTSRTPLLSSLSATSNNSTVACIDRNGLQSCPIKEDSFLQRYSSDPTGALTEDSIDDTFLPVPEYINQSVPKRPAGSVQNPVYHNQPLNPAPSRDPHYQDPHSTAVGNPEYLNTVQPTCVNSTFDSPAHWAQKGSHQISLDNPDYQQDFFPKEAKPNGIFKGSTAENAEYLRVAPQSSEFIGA
smiles,measurement,setting,value
CN(CC1CCOCC1)c1ncnc2[nH]c(-c3ccc(CCO)cc3)nc12,inhibition (INH),[1],100%
same,inhibition,[2],Active
same,Ratio,[3],72
same,hepatocyte CLint at 3 µM,[4],22 µL/min/1e6 cells
same,IC50,[5],106 nM
same,CLint,[6],30.2 µL/min/mg
same,"solubility kinetic at […], 500 µM",[7],37.5 µM
same,clearance,[8],317 mL/min/kg
same,"remaining at 1 h, 5 µM",[9],97.9%
same,fold change (FC),[10],0.7
same,CLint,[11],14.7 µL/min/mg
same,Vd,[12],9 L/kg
same,Kd,[13],0.5 nM
same,IC50,BaF3,1500 nM
same,Kd,[14],36 nM
same,half-life,[15],24 min
same,"fraction unbound at 6 h, 5 µM",[16],0.366
same,"remaining at 1 h, 5 µM",[17],97.2%
same,inhibition,[18],Active
CN(CC1CCN(Cc2ccccc2)CC1)c1ncnc2[nH]c(-c3ccc(CO)cc3)nc12,IC50,[5],> 300 nM
same,"solubility kinetic at […], 500 µM",[7],33.5 µM
same,CLint,[11],22.1 µL/min/mg
Cc1ccc(CN(C)c2ncnc3[nH]c(-c4ccc(CO)cc4)nc23)cc1,IC50,[19],11 nM
CN(CC1CCCCC1)c1ncnc2[nH]c(-c3ccc(CO)cc3)nc12,IC50,[5],100 nM
same,"solubility kinetic at […], 500 µM",[7],0.5 µM
same,IC50,[19],1 nM
same,fold change (FC),[10],0.9
same,CLint,[11],22.3 µL/min/mg
CN(CC1CCCCO1)c1ncnc2[nH]c(-c3ccc(CO)cc3)nc12 (stereo unspecified),IC50,[5],> 300 nM
same,"solubility kinetic at […], 500 µM",[7],9.2 µM
same,CLint,[11],24.2 µL/min/mg
CN(CC1CCOCC1)c1ncnc2[nH]c(-c3ccc(CO)cc3)nc12,inhibition (INH),[1],100%
same,inhibition,[2],Active
same,hepatocyte CLint at 3 µM,[4],148 µL/min/1e6 cells
same,IC50,[5],83 nM
same,CLint,[6],58.7 µL/min/mg
same,"solubility kinetic at […], 500 µM",[7],55.4 µM
same,CL,"[8]; iv, 1 mg/kg, 8 h",3300 mL/min/kg
same,"remaining at 1 h, 5 µM",[9],100%
same,CLint,[11],15.8 µL/min/mg
same,Vd,[12],80 L/kg
same,Kd,[13],4.5 nM
same,IC50,BaF3,3100 nM
same,Kd,[14],80 nM
same,half-life,[15],24 min
same,"fraction unbound at 6 h, 5 µM",[16],0.44
same,"remaining at 1 h, 5 µM",[17],83%
same,inhibition,[18],Active
CN(Cc1ccncc1)c1ncnc2[nH]c(-c3ccc(CO)cc3)nc12,IC50,[19],2.2 nM
CN(Cc1ccccc1)c1ncnc2[nH]c(-c3ccc(CO)cc3)nc12,IC50,[5],330 nM
same,CLint,[6],57.8 µL/min/mg
same,IC50,[20],109 nM
same,fold change (FC),[10],2.9
same,CLint,[11],14.4 µL/min/mg
CN(CC1CCCO1)c1ncnc2[nH]c(-c3ccc(CO)cc3)nc12 (stereo unspecified),IC50,[5],> 300 nM
same,"solubility kinetic at […], 500 µM",[7],39.7 µM
same,CLint,[11],33.2 µL/min/mg
Cc1cccc(CN(C)c2ncnc3[nH]c(-c4ccc(CO)cc4)nc23)c1,IC50,[19],1.3 nM
CN(Cc1cccs1)c1ncnc2[nH]c(-c3ccc(CO)cc3)nc12,IC50,[19],2.9 nM
CN1CCCC(CN(C)c2ncnc3[nH]c(-c4ccc(CO)cc4)nc23)C1 (stereo unspecified),IC50,[5],> 300 nM
same,"solubility kinetic at […], 500 µM",[7],469 µM
same,CLint,[11],3.6 µL/min/mg
CN(CC1CCOC1)c1ncnc2[nH]c(-c3ccc(CO)cc3)nc12 (stereo unspecified),IC50,[5],> 300 nM
same,"solubility kinetic at […], 500 µM",[7],131 µM
same,CLint,[11],20.1 µL/min/mg
FC(F)(F)c1ccc(CNc2ccc(Cc3c[nH]c4ncc(Cl)cc34)cn2)cn1 [PEXIDARTINIB],inhibition (INH),[1],100%
same,inhibition,[2],Active
same,IC50,[5],100 nM
same,"solubility kinetic at […], 500 µM",[7],20.7 µM
same,clearance,[8],0.833 mL/min/kg
same,"remaining at 1 h, 5 µM",[9],100%
same,Vd,[12],0.4 L/kg
same,IC50,BaF3,60 nM
same,inhibition,[18],Active
CN(Cc1ccccn1)c1ncnc2[nH]c(-c3ccc(CO)cc3)nc12,IC50,[19],7.2 nM
CN(Cc1ccccc1)c1ncnc2[nH]c(-c3ccccc3)nc12,IC50,[19],2.7 nM
